Structures can show the parent of a compound that is named as a salt. Where two headings read alike, the source gives them in different places.
Legend:
[1] = tested on: Influenza B Massachusetts virus; assay: Influenza B Mass. in mice, oral; late read day 5 (Table 39), 7 (Table 40), 11 (Tables 61, 65); control fraction 16/20 (Table 61), else 100%; assay type: in vivo, mouse
Experimental: A portion of a commercially available sample of amantadine was recrystallized from isopropanol. The activity of the material against Influenza B Mass. was tested for the sample as obtained, the recrystallized portion, and the mother liquor obtained from recrystallizing the portion.

[2] = tested on: Influenza, Ann Arbor virus; assay: Influenza Ann Arbor in mice, oral; schedule by table; late read day 5 (Tables 15, 25, 29, 30), 6 (18, 20, 22, 23, 26, 27, 28, 54), 7 (14, 19, 21, 24, 53, 56), 8 (16, 17, 51), 9 (11, 55); assay type: in vivo, mouse

NNC(=S)NC12CC3CC(CC(C3)C1)C2
No. animals surviving when 18/20 of controls are dead (Herpes virus; total dose 4 pg): 1
Survivors (Herpes virus; total dose 4 pg): 1
No. animals surviving when 18/20 of controls are dead (Herpes virus; total dose 40 pg): 1
Survivors (Herpes virus; total dose 40 pg): 1
No. animals surviving when 18/20 of controls are dead (Herpes virus; total dose 400 pg): 3
Survivors (Herpes virus; total dose 400 pg): 3
No. animals surviving when 18/20 of controls are dead (Herpes virus; total dose 4 ng): 2
Survivors (Herpes virus; total dose 4 ng): 2
No. animals surviving when 18/20 of controls are dead (Herpes virus; total dose 40 ng): 2
Survivors (Herpes virus; total dose 40 ng): 2
No. animals surviving when 18/20 of controls are dead (Herpes virus; total dose 400 ng): 3
Survivors (Herpes virus; total dose 400 ng): 3

NC(=S)NN=C1CCCCC1 [Cyclohexanone, thiosemicarBazone, Cyclohexanone, thiosemicarbazone]
No. animals surviving after 5 days (Table 61: 11 days) ([1]; total dose .000005 μg (5 pg)): 7
No. animals surviving when 100% (Table 61: 16/20) of controls are dead ([1]; total dose .000005 μg (5 pg)): 5
Survivors ([1]; total dose .000005 μg (5 pg)): 5
No. animals surviving after 5 days (Table 61: 11 days) ([1]; total dose .00005 μg (50 pg)): 4
No. animals surviving when 100% (Table 61: 16/20) of controls are dead ([1]; total dose .00005 μg (50 pg)): 3
Survivors ([1]; total dose .00005 μg (50 pg)): 2
No. animals surviving after 5 days (Table 61: 11 days) ([1]; total dose .0005 μg (500 pg)): 2
No. animals surviving when 100% (Table 61: 16/20) of controls are dead ([1]; total dose .0005 μg (500 pg)): 2
Survivors ([1]; total dose .0005 μg (500 pg)): 2
No. animals surviving after 5 days (Table 61: 11 days) ([1]; total dose .005 μg (5 ng)): 3
No. animals surviving when 100% (Table 61: 16/20) of controls are dead ([1]; total dose .005 μg (5 ng)): 2
Survivors ([1]; total dose .005 μg (5 ng)): 2
No. animals surviving after 5 days (Table 61: 11 days) ([1]; total dose .05 μg (50 ng)): 7
No. animals surviving when 100% (Table 61: 16/20) of controls are dead ([1]; total dose .05 μg (50 ng)): 7
Survivors ([1]; total dose .05 μg (50 ng)): 5
No. animals surviving after 5 days (Table 61: 11 days) ([1]; total dose .5 μg (500 ng)): 2
No. animals surviving when 100% (Table 61: 16/20) of controls are dead ([1]; total dose .5 μg (500 ng)): 1
Survivors ([1]; total dose .5 μg (500 ng)): 1

NC12CC3CC(CC(C3)C1)C2 [Recrystallized amantadine, amantadine, reference compound]
No. animals surviving after 11 days ([1]; total dose 60 ng): 4
Survivors ([1]; total dose 60 ng): 2
No. animals surviving after 11 days ([1]; total dose 600 ng): 3
Survivors ([1]; total dose 600 ng): 3
No. animals surviving after 11 days ([1]; total dose 6 μg): 5
Survivors ([1]; total dose 6 μg): 5
No. animals surviving after 11 days ([1]; total dose 60 μg): 5
Survivors ([1]; total dose 60 μg): 2
No. animals surviving after 11 days ([1]; total dose 600 μg): 3
Survivors ([1]; total dose 600 μg): 2
No. animals surviving after 11 days ([1]; total dose 6 mg): 6
Survivors ([1]; total dose 6 mg): 4

NNc1nncc2ccccc12 [Hydralazine, hydralazine, reference compound]
activity in words (Herpes virus; mouse, in vivo): effective

N#CCC(=O)NN [Cyonacetic Acid Carbazide, Cyanoacetic Acid Hydrazide]
No. animals surviving after 5 days (Table 61: 11 days) ([1]; total dose .000005 μg (5 pg)): 3
No. animals surviving when 100% (Table 61: 16/20) of controls are dead ([1]; total dose .000005 μg (5 pg)): 3
Survivors ([1]; total dose .000005 μg (5 pg)): 3
No. animals surviving after 5 days (Table 61: 11 days) ([1]; total dose .00005 μg (50 pg)): 4
No. animals surviving when 100% (Table 61: 16/20) of controls are dead ([1]; total dose .00005 μg (50 pg)): 4
Survivors ([1]; total dose .00005 μg (50 pg)): 4
No. animals surviving after 5 days (Table 61: 11 days) ([1]; total dose .0005 μg (500 pg)): 8
No. animals surviving when 100% (Table 61: 16/20) of controls are dead ([1]; total dose .0005 μg (500 pg)): 5
Survivors ([1]; total dose .0005 μg (500 pg)): 5
No. animals surviving after 5 days (Table 61: 11 days) ([1]; total dose .005 μg (5 ng)): 2
No. animals surviving when 100% (Table 61: 16/20) of controls are dead ([1]; total dose .005 μg (5 ng)): 2
Survivors ([1]; total dose .005 μg (5 ng)): 1
No. animals surviving after 5 days (Table 61: 11 days) ([1]; total dose .05 μg (50 ng)): 4
No. animals surviving when 100% (Table 61: 16/20) of controls are dead ([1]; total dose .05 μg (50 ng)): 4
Survivors ([1]; total dose .05 μg (50 ng)): 3
No. animals surviving after 5 days (Table 61: 11 days) ([1]; total dose .5 μg (500 ng)): 5
No. animals surviving when 100% (Table 61: 16/20) of controls are dead ([1]; total dose .5 μg (500 ng)): 4
Survivors ([1]; total dose .5 μg (500 ng)): 4

CCOC(=O)CC(C)=NNC(N)=S [acetoacetic acid, ethyl ester, thiosemicarbazone]
No. animals surviving after 5-7 days ([2]; total dose 30 pg): 8
Survivors ([2]; total dose 30 pg): 0
No. animals surviving after 5-7 days ([2]; total dose 300 pg): 4
Survivors ([2]; total dose 300 pg): 0
No. animals surviving after 5-7 days ([2]; total dose 3 ng): 5
Survivors ([2]; total dose 3 ng): 0
No. animals surviving after 5-7 days ([2]; total dose 30 ng): 5
Survivors ([2]; total dose 30 ng): 0
No. animals surviving after 5-7 days ([2]; total dose 300 ng): 4
Survivors ([2]; total dose 300 ng): 0
No. animals surviving after 5-7 days ([2]; total dose 3 μg): 6
Survivors ([2]; total dose 3 μg): 0
No. animals surviving after 5-7 days ([2]; total dose 30 μg): 8
Survivors ([2]; total dose 30 μg): 0
No. animals surviving after 5-7 days ([2]; total dose 300 μg): 7
Survivors ([2]; total dose 300 μg): 0
No. animals surviving after 5-7 days ([2]; total dose 3 mg): 5
Survivors ([2]; total dose 3 mg): 0

CNNC [1,2-dimethylhydrazine, dihydrochloride]
No. animals surviving after 5-7 days ([2]; total dose 30 pg): 6
Survivors ([2]; total dose 30 pg): 1
No. animals surviving after 5-7 days ([2]; total dose 300 pg): 2
Survivors ([2]; total dose 300 pg): 0
No. animals surviving after 5-7 days ([2]; total dose 3 ng): 3
Survivors ([2]; total dose 3 ng): 0
No. animals surviving after 5-7 days ([2]; total dose 30 ng): 3
Survivors ([2]; total dose 30 ng): 1
No. animals surviving after 5-7 days ([2]; total dose 300 ng): 5
Survivors ([2]; total dose 300 ng): 0
No. animals surviving after 5-7 days ([2]; total dose 3 μg): 3
Survivors ([2]; total dose 3 μg): 0
No. animals surviving after 5-7 days ([2]; total dose 30 μg): 4
Survivors ([2]; total dose 30 μg): 0
No. animals surviving after 5-7 days ([2]; total dose 300 μg): 6
Survivors ([2]; total dose 300 μg): 0
No. animals surviving after 5-7 days ([2]; total dose 3 mg): 3
Survivors ([2]; total dose 3 mg): 0

NC(N)=S [Thiourea]
No. animals surviving after 5-7 days ([2]; total dose 30 pg): 2
Survivors ([2]; total dose 30 pg): 0
No. animals surviving after 5-7 days ([2]; total dose 300 pg): 4
Survivors ([2]; total dose 300 pg): 0
No. animals surviving after 5-7 days ([2]; total dose 3 ng): 3
Survivors ([2]; total dose 3 ng): 1
No. animals surviving after 5-7 days ([2]; total dose 30 ng): 4
Survivors ([2]; total dose 30 ng): 0
No. animals surviving after 5-7 days ([2]; total dose 300 ng): 2
Survivors ([2]; total dose 300 ng): 0
No. animals surviving after 5-7 days ([2]; total dose 3 μg): 7
Survivors ([2]; total dose 3 μg): 0
No. animals surviving after 5-7 days ([2]; total dose 30 μg): 3
Survivors ([2]; total dose 30 μg): 0
No. animals surviving after 5-7 days ([2]; total dose 300 μg): 6
Survivors ([2]; total dose 300 μg): 1
No. animals surviving after 5-7 days ([2]; total dose 3 mg): 5
Survivors ([2]; total dose 3 mg): 0
